Experimental data as given in US20240158418A1 (C4 Therapeutics, Inc., priority 2021, published 2024).
Read-outs that look alike come from different tables or passages of the source.

Columns and labels:
EGFR L858R-T790M = target: T1, EGFR L858R-T790M (Homo sapiens, UniProt P00533, L858R/T790M); test: EGFR degradation, Total EGFR (L858R-specific) HTRF, NCI-H1975; type: cell-based; settings: NCI-H1975 cells, 6 hours, Total EGFR HTRF, read-out: H1975 EGFR DC50
T1 construct: NCI-H1975 (harboring EGFR heterozygous L858R-T790M mutations); host or cells: NCI-H1975
Procedure, shortened: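 FRET signal from HTRF kits measured phospho-EGFR at pY1068 or total EGFR after 6 h treatment at 37 °C. Compounds ran as 11-point half-log dilutions from 10 μM in duplicate, in cells in phenol red-free RPMI with 10% FBS. Concentrations giving 50% inhibition or degradation were reported as IC50 or DC50.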

EGFR L858R = EGFR L858R (Homo sapiens, UniProt P00533, L858R); test: EGFR degradation, Total EGFR (L858R-specific) HTRF, NCI-H3255; type: cell-based; design: NCI-H3255 (harboring EGFR heterozygous L858R mutation); host or cells: NCI-H3255; settings: NCI-H3255 cells, 6 hours, Total EGFR HTRF, read-out: H3255 EGFR DC50
Excerpt: NCI-H1975 (harboring EGFR heterozygous L858R-T790M mutations) and NCI-H3255 (harboring EGFR heterozygous L858R mutation) were purchased from ATCC and NCI, respectively. NCI-H1975+CS (harboring EGFR heterozygous L858R-T790M-C797S mutations) was generated using CRISPR technology to introduce the additional C797S mutation by Horizon Discovery. A431 (harboring EGFR wildtype) was purchased from ATCC. RPMI 1640 no-phenol red medium and fetal bovine serum (FBS) were purchased from Gibco (Grand Island, NY, USA). Cell culture flasks and 384-well microplates were acquired from VWR (Radnor, PA, USA). Phosphorylated (pY1068) EGFR and Total EGFR (using L858R-specific detection antibody and pan-EGFR antibody for EGFR mutant cell lines and EGFR wild-type cell lines, respectively) HTRF assay kits were purchased from Cisbio (Bedford, MA, USA).
Degradation of EGFR protein containing L858R mutation or wild-type was determined based on quantification of FRET signal using a Total EGFR (L858R-specific or pan-EGFR detecting) HTRF assay kit. Phospho-EGFR (pEGFR) inhibition was determined based on quantification of FRET signal using a pY1068 EGFR HTRF assay kit. In separate assay plates, test compounds were added to the 384-well plate from a top concentration of 10 μM with 11 points, half log titration in duplicates. For each assay, 12.5 uL of cells suspended in assay media (RPMI 1640 no-phenol red medium+10% FBS) at cell densities indicated for each cell line in Table 8 below were dispensed using a multi-channel pipette to 384-well low volume white HTRF microplates containing a duplicate concentration range of test compounds and DMSO controls. The plates were kept at 37° C. with 5% CO2 for 6 hours and then incubated with either phospho EGFR or Total EGFR HTRF detection antibodies according to the cell line and EGFR mutant being assayed. Cells treated in the absence of the test compound were the negative control. Positive control was set by wells containing all reagents but no cells. FRET signal was acquired on EnVision™ Multilabel Reader (PerkinElmer, Santa Clara, CA, USA). Compound concentration that achieves 50% degradation and inhibition was reported as DC50 and IC50, respectively.

T1 sequence (P00533 25-1210 T790M/L858R): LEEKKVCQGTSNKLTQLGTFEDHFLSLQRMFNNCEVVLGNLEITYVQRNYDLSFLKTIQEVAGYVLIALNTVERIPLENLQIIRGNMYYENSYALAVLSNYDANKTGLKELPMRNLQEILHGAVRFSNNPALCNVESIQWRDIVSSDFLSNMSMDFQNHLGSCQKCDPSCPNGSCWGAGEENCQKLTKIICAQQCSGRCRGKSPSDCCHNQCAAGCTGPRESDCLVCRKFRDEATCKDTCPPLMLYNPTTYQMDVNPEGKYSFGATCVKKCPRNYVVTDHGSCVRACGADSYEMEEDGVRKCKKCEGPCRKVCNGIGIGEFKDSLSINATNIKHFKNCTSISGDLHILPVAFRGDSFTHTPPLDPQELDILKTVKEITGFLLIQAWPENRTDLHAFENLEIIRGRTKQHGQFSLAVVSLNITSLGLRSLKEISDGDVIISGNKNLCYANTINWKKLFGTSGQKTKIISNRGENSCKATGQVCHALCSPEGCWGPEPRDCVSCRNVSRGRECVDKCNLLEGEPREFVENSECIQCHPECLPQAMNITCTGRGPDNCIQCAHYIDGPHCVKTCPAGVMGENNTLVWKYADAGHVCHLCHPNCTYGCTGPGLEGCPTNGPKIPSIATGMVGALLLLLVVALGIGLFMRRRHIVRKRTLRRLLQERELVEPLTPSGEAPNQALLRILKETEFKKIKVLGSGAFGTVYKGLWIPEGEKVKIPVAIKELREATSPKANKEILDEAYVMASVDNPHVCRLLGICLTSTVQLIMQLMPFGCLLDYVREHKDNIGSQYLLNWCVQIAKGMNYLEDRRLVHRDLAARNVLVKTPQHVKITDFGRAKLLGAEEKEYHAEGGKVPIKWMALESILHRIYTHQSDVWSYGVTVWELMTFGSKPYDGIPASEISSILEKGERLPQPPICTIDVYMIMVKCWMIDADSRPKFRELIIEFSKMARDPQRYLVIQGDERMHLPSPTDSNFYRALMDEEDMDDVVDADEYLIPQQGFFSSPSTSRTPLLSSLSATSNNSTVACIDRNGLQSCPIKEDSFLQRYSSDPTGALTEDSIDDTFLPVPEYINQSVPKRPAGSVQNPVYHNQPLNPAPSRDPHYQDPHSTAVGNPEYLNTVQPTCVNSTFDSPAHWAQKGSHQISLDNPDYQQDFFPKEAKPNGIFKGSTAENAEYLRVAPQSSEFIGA
EGFR L858R, sequence (P00533 25-1210 L858R): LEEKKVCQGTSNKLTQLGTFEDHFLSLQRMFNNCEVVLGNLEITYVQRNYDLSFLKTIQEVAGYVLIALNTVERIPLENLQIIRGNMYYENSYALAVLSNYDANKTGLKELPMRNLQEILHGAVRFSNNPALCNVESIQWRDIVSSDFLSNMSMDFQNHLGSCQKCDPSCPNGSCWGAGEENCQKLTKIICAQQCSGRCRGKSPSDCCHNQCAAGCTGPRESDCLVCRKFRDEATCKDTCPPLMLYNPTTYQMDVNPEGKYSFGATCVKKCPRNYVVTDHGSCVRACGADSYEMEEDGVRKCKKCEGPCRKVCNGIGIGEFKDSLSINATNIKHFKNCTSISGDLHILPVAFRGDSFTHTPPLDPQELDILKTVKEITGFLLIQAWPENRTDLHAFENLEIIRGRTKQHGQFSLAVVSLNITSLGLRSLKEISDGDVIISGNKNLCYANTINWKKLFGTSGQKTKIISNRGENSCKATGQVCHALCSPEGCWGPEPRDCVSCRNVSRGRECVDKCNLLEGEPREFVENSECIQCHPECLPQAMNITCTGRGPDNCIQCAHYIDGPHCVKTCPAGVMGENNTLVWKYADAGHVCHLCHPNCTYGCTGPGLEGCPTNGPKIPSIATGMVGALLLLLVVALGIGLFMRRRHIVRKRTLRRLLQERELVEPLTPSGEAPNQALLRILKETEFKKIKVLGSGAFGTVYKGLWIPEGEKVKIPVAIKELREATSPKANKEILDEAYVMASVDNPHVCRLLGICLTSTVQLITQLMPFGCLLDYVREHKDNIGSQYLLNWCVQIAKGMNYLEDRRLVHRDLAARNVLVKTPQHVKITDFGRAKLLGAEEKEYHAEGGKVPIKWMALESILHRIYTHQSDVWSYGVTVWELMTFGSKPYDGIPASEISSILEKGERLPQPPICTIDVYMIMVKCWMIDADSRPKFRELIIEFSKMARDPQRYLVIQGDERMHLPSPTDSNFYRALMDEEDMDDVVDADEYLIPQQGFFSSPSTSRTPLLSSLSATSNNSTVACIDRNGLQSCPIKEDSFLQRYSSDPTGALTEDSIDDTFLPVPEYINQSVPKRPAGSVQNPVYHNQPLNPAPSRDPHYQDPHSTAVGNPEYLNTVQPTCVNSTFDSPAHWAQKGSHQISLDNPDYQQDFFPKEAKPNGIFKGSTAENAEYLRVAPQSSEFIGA

Structure (SMILES) | DC50 (EGFR L858R-T790M; Table 9B) [nM] | DC50 (EGFR L858R; Table 9B) [nM] | DC50 (EGFR L858R-T790M; Table 9A) [nM] | DC50 (EGFR L858R; Table 9A) [nM]
O=C1CCC(Nc2ccc(C3CCC(CC(=O)N4CCN(c5ccc(-c6cc(F)c7c(c6)C(=O)N(C(C(=O)Nc6nccs6)c6ncn8c6CCC8)C7)cc5)CC4)CC3)cc2)C(=O)N1 (centres unmarked) [Compound 177, 2-(6,7-dihydro-5H-pyrrolo[1,2-c]imidazol-1-yl)-2-(6-(4-(4-(2-(4-(4-((2,6-dioxopiperidin-3-yl)amino)phenyl)cyclohexyl)acetyl)piperazin-1-yl)phenyl)-4-fluoro-1-oxoisoindolin-2-yl)-N-(thiazol-2-yl)acetamide] | < 50 | < 50 |  | 
O=C1CC[C@H](Nc2ccc(C3CCN(CC(=O)N4CCC(n5cc(-c6cc(F)c7c(c6)C(=O)N(C(C(=O)Nc6nccs6)c6ncn8c6CCC8)C7)nn5)CC4)CC3)cc2)C(=O)N1 (stereo partly drawn) [Compound 30, 2-(6,7-Dihydro-5H-pyrrolo[1,2-c]imidazol-1-yl)-2-(6-(1-(1-(2-(4-(4-(((S)-2,6-dioxopiperidin-3-yl)amino)phenyl)piperidin-1-yl)acetyl)piperidin-4-yl)-1H-1,2,3-triazol-4-yl)-4-fluoro-1-oxoisoindolin-2-yl)-N-(thiazol-2-yl)acetamide] |  |  | < 50 | < 50
O=C1CCC(Nc2ccc(C3CCN(CC(=O)N4CCN(c5ccc(-c6cc(F)c7c(c6)C(=O)N(C(C(=O)Nc6nccs6)c6ncn8c6CCC8)C7)cc5)CC4)CC3)nc2)C(=O)N1 (centres unmarked) [Compound 179, 2-(6,7-dihydro-5H-pyrrolo[1,2-c]imidazol-1-yl)-2-[6-[4-[4-[2-[4-[5-[(2,6-dioxo-3-piperidyl)amino]-2-pyridyl]-1-piperidyl]acetyl]piperazin-1-yl]phenyl]-4-fluoro-1-oxo-isoindolin-2-yl]-N-thiazol-2-yl-acetamide] | < 50 | < 50 |  | 
O=C1CC[C@H](Nc2ccc(C3CCN(CC(=O)N4CCCN(c5ccc(-c6cc(F)c7c(c6)C(=O)N(C(C(=O)Nc6nccs6)c6ncn8c6CCC8)C7)cc5)CC4)CC3)c(F)c2)C(=O)N1 (stereo partly drawn) [Compound 84, 2-(6,7-dihydro-5H-pyrrolo[1,2-c]imidazol-1-yl)-2-(6-(4-(4-(2-(4-(4-(((S)-2,6-dioxopiperidin-3-yl)amino)-2-fluorophenyl)piperidin-1-yl)acetyl)-1,4-diazepan-1-yl)phenyl)-4-fluoro-1-oxoisoindolin-2-yl)-N-(thiazol-2-yl)acetamide] | 50 to 150 | 50 to 150 |  | 
O=C1CC[C@H](Nc2ccc(C3CCN(CC(=O)N4CC5(C4)CN(c4ccc(-c6cc(F)c7c(c6)C(=O)N(C(C(=O)Nc6ccccn6)c6ncn8c6CCC8)C7)cc4)C5)CC3)c(F)c2)C(=O)N1 (stereo partly drawn) [Compound 53, 2-(6,7-dihydro-5H-pyrrolo[1,2-c]imidazol-1-yl)-2-[6-[4-[2-[2-[4-[4-[[(3S)-2,6-dioxo-3-piperidyl]amino]-2-fluoro-phenyl]-1-piperidyl]acetyl]-2,6-diazaspiro[3.3]heptan-6-yl]phenyl]-4-fluoro-1-oxo-isoindolin-2-yl]-N-(2-pyridyl)acetamide] |  |  | 50 to 150 | < 50
Cn1nc(N2CCC(=O)NC2=O)c2ccc(C3CCN(CC(=O)N4CC5(C4)CN(c4ccc(-c6cc(F)c7c(c6)C(=O)N(C(C(=O)Nc6nccs6)c6ncn8c6CCC8)C7)cc4)C5)CC3)cc21 (centres unmarked) [Compound 49, 2-(6,7-dihydro-5H-pyrrolo[1,2-c]imidazol-1-yl)-2-[6-[4-[2-[2-[4-[3-(2,4-dioxohexahydropyrimidin-1-yl)-1-methyl-indazol-6-yl]-1-piperidyl]acetyl]-2,6-diazaspiro[3.3]heptan-6-yl]phenyl]-4-fluoro-1-oxo-isoindolin-2-yl]-N-thiazol-2-yl-acetamide] |  |  | < 50 | < 50
O=C1CCC(Nc2ccc(C3CCN(C(=O)CN4CCN(c5ccc(-c6cc(F)c7c(c6)C(=O)N(C(C(=O)Nc6nccs6)c6ncn8c6CCC8)C7)cc5)CC4)CC3)cc2)C(=O)N1 (centres unmarked) [Compound 178, 2-(6,7-dihydro-5H-pyrrolo[1,2-c]imidazol-1-yl)-2-(6-(4-(4-(2-(4-(4-((2,6-dioxopiperidin-3-yl)amino)phenyl)piperidin-1-yl)-2-oxoethyl)piperazin-1-yl)phenyl)-4-fluoro-1-oxoisoindolin-2-yl)-N-(thiazol-2-yl)acetamide] | < 50 | < 50 |  | 
